We go through two compounds from patent US8828982B2, “Pyrimidine derivatives for the prevention of HIV infection” (Janssen Pharmaceutica N.V., priority 2003, dated 2014).

Holding throughout (format): cell-based
Assay [1] concerns MO-DC/CD4(+) T cell co-cultures (MO-DC stimulators, allogenic CD4(+) T cells responders). Briefly: Immune suppressive activity in mixed leucocyte culture (MLC), 24 hour assay. Conditions: test compound present only during first 24 hours of the 5-day culture; read-out: ISC50 (nM) (Test B, 24 hour assay)). As to the method: The compounds of formula (I) were tested for their immune-suppressive activity (defined as ISC50 value) in a classical MLC in which monocyte-derived dendritic cells (MO-DC) were used as stimulators and allogenic CD4(+) T cells as responders.
(§1) A dilution series of test compound was added to the MO-DC/CD4(+) T cell co-cultures. After 5 days of culture, 20 μl of [methyl-3H]-Thymidine was added to each well and cultures were harvested after 7 hours. Analysis was done on a Topcount scintillation counter. The immune suppressive concentration (ISC50) is defined as the test compound concentration inhibiting 50% of normal immune proliferation (test compound concentration inhibiting 50% of [methyl-3H]-Thymidine incorporation). (standard MLC assay)
For the 24 hour assay, the test compound was only present during the first 24 hours of the 5-day culture period. After 24 hours, the cultures were washed (three times) and culture medium without compound was added. The experimental set-up was from then on similar to the standard MLC assay described above.

For assay [2] the test system is unchanged. As to the kind of experiment: Immune suppressive activity in mixed leucocyte culture (MLC), standard assay. The note with it: concentration inhibiting 50% of [methyl-3H]-Thymidine incorporation, 5 days of culture, compound present throughout, read-out: ISC50 (nM) (Test B, standard assay)). As to the method: as §1, with “The compounds of formula (I) were tested for their immune-suppressive activity (defined as ISC50 value) in a classical MLC in which monocyte-derived dendritic cells (MO-DC) were used as stimulators and allogenic CD4(+) T cells as responders. A dilution” for “A dilution”
Background: Dividing cells build labelled thymidine or BrdU into new DNA.

Another assay concerns HIV strain Ba-L. As to the kind of experiment: In vitro model b) (24 hour infection experiment), MO-DC co-cultured with autologous T4 cells. As to the method:
Monocyte-derived dendritic cells (MO-DC) were co-cultured with autologous T4 cells and infected with HIV strain Ba-L at a multiplicity of infection (MOI) of 10^−3. A serial dilution of test compound was added at the time of infection. After 24 hours, 96-well plates were washed 3 times (test compound and free virus washed away) and medium (without test compound) was added. Half of the medium was refreshed twice a week. Culture supernatants were harvested after 7 and 14 days of culture. After 14 days, cultures were washed 3 times and PHA/IL-2 stimulated PBMC were added for a secondary culture to check for viral rescue. During secondary culture, half of the medium was refreshed twice weekly (IL-2 medium, without test compound). Supernatants were harvested after 1 and 2 weeks of secondary culture. After 2 weeks of secondary culture, cells were also harvested for PCR analysis. Supernatants were analysed in ELISA for the presence of HIV […] during primary and secondary culture.

Assay [3] concerns monotropic HIV strain Ba-L. As to the kind of experiment: In vitro model c) (standard infection experiment), MO-DC/CD4(+) T cell co-cultures, ELISA for HIV antigens after 14 days. The note with it: concentration suppressing 50% of viral replication at end of primary culture (14 days), test compound present throughout, MOI 10^-3. As to the method: Monocyte-derived dendritic cells (MO-DC) were infected for 2 hours with the monotropic HIV strain Ba-L at a multiplicity of infection (MOI) of 10^−3. After infection, cells were washed 6 times and resuspended in 10% BCS at 400.000 cells/ml. Autologous CD4(+) T cells were purified out of the lymphocyte fraction of the same elutration as the MO-DC and used at a concentration of 2×10^6 cells/ml ((ratio MO-DC/CD4(+) T: 1/5).
A serial dilution of a compound of formula (I) (test compound) was added to the MO-DC/CD4(+) T cell co-cultures. Each experiment was done in 96-well plates, in which each cup contained 50 μl of MO-DC, 50 μl of CD4(+) T cells and 100 μl of test compound. Half of the culture medium, with test compound, was refreshed twice weekly, during 14 days. Supernatants were analysed by ELISA after 14 days of culture for the presence of HIV antigens. To determine antiviral activity, the test compound concentration able to suppress 50% of the viral replication at the end of the primary cultures (EC50) was measured.

The test system of the next assay is HIV. As to the kind of experiment: HIV replication inhibition test of "C. Pharmacological example" of WO 2003/016306. Conditions: test described in WO 2003/016306. The source says:
Due to their antiretroviral properties, particularly their anti-HIV properties, especially their anti-HIV-1-activity, the compounds of formula (I), their N-oxides, pharmaceutically acceptable addition salts, quaternary amines and stereochemically isomeric forms thereof, are useful in the treatment of individuals infected by HIV. The HIV replication inhibiting effect of the compounds of formula (I) is described in WO 2003/016306. Compound 255 has a pIC50 value of 9.00 when tested in the test described under the heading “C. Pharmacological example” of WO 2003/016306.

By EC50 is commonly meant the concentration that produces a half-maximal response. Read a high EC50 as lower potency in that assay. The pIC50 is the IC50 on a negative log10 scale, so that one unit is a factor of ten. On to `Cc1cc(/C=C/C#N)cc(C)c1Oc1ccnc(Nc2ccc(C#N)cc2)n1` [Compound 255, 4-[[4-[4-(2-cyanoethenyl)-2,6-dimethylphenoxy]-2-pyrimidinyl]amino]benzonitrile (E)], for which the IC50 stood at 24600 nM in assay [1] and 20200 nM in assay [2]. In addition, the “cups tested positive in ELISA after 7 days of primary culture” value with HIV strain Ba-L (concentrations ranging from 10,000 to 10 nM, 6 cups) is given as “none out of 6”. Besides, the concentration for a half-maximal effect (EC50) is 2 nM in the assay on HIV strain Ba-L (test compound added at time of infection and washed away after 24 hours, MOI 10^-3); 0.05 nM in assay [3]. The pIC50 with HIV came out at 9.00.

As to `Cc1cc(/C=C/c2ccncc2)cc(C)c1Nc1ccnc(Nc2ccc(C#N)cc2)n1` [Compound 162], the IC50 in assay [2] (Leucocyte, 120 h) turned out to be 1140 nM. The compound also showed an EC50 in assay [3] (Human immunodeficiency virus 1, BAL, T-cell, 336 h) of 5.5 nM.
